Each structure is given as a SMILES string.

For 7 compounds, IC50 results are on record in ChEMBL document CHEMBL5726493, “Compositions and methods of modulating short-chain dehydrogenase activity” (2017).

The target in the test is T1, 15-hydroxyprostaglandin dehydrogenase [NAD(+)] (Homo sapiens, UniProt P15428).
T1 sequence (P15428 whole entry): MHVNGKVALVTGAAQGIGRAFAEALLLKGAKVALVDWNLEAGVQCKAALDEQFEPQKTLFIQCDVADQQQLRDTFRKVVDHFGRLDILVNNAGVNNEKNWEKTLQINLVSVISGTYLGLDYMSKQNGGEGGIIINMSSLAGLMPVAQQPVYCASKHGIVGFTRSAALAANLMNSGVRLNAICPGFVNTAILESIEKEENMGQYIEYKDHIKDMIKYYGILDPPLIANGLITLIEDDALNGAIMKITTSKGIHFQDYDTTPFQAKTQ
In words: In Vitro Assay: Each compound for inhibiting enzymatic activity of recombinant 15-PGDH in an in vitro assay.

One may read the IC50 as the concentration at which inhibition is half-maximal. As for `CCCC[S+]([O-])c1sc2nc(-c3nccs3)cc(-c3cccc(C(=O)O)c3)c2c1N` (configuration not stated), the IC50 came out at 20.2 nM.

On to `CCCC[S+]([O-])c1sc2nc(-c3nccs3)cc(-c3ccc(CN(C)C)cc3)c2c1N` (configuration not stated), for which the IC50 came to 5.7 nM.

`CCCC[S+]([O-])c1sc2nc(-c3nccs3)cc(-c3ccc(OCC(=O)OC)cc3)c2c1N` (configuration not stated): the IC50 came to 8.53 nM.

For the compound `CCCC[S+]([O-])c1sc2nc(-c3nccs3)cc(-c3ccc(OCC(=O)O)cc3)c2c1N` (configuration not stated), the half-inhibitory concentration (IC50) stood at 2.71 nM.

On to `CCCC[S+]([O-])c1sc2nc(-c3nccs3)cc(-c3cccc(C(=O)NCCN(C)C)c3)c2c1N` (configuration not stated), for which the concentration for half-maximal inhibition (IC50) was 19.3 nM.

Consider `CCCC[S+]([O-])c1sc2nc(-c3nccs3)cc(-c3cccc(C(=O)N4CCN(C)CC4)c3)c2c1N` (configuration not stated), for which the IC50 was determined as 36.4 nM.

For the compound `C=CCNC(=O)c1cccc(-c2cc(-c3nccs3)nc3sc([S+]([O-])CCCC)c(N)c23)c1` (configuration not stated), the IC50 was 2.5 nM.
